According to patent publication US11746100B2 (GLOBAL BLOOD THERAPEUTICS, INC., priority 2020, dated 2023):

Target: T1, human ferroportin (Homo sapiens, UniProt Q9NP59)
T1 construct: luciferase reporter (read with the Nano-Glo Luciferase Assay System); expressed in transfected cells; host or cells: CHO cells, stably transfected, expression induced with doxycycline
T1 sequence (Q9NP59 1-571): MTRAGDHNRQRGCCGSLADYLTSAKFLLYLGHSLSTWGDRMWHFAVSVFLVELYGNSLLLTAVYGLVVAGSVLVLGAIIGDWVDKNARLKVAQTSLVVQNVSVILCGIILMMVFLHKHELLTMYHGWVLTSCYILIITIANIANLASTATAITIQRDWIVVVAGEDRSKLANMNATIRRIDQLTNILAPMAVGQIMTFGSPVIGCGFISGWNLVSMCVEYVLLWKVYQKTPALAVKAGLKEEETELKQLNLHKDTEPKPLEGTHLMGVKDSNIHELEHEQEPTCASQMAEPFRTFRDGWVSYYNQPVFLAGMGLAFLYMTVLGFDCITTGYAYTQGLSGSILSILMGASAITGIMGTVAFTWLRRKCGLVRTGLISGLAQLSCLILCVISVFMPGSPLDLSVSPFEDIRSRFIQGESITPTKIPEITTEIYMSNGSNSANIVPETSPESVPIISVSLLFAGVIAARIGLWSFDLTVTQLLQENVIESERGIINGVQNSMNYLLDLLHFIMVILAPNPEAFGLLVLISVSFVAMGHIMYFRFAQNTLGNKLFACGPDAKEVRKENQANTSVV
Experiment: Biological in-vitro ferroportin internalization assay (luciferase reporter)
Format: cell-based
Conditions: average pEC50; stably-transfected CHO cell line expressing human ferroportin tagged to a luciferase reporter; 6 h incubation with test compound
Procedure, shortened: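 Stably transfected CHO cells expressing luciferase-tagged human ferroportin, plated 24 h with ferric ammonium citrate and induced with doxycycline for 24 h. Compounds incubated 6 h, then luciferase activity measured by Nano-Glo; average pEC50 reported.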

Row | pEC50 | Structure (SMILES)
1 | 7 | Cc1cnc(-c2nc3c(c(N(C)CC(=O)NC(C)(C)C)n2)CCC3)cc1OCCO [Compound 191, N-tert-butyl-2-({2-[4-(2-hydroxyethoxy)-5-methylpyridin-2-yl]-5H,6H,7H-cyclopenta[d]pyrimidin-4-yl}(methyl)amino)acetamide]
2 | 6.5 | COc1cc(-c2nc3c(c(N(C)CC(=O)NC(C)(C)C)n2)CCC3)ncc1C [Compound 192, N-tert-butyl-2-{[2-(4-methoxy-5-methylpyridin-2-yl)-5H,6H,7H-cyclopenta[d]pyrimidin-4-yl](methyl)amino}acetamide]
3 | 6.8 | CCn1cnc(-c2nc3c(c(N(C)CC(=O)NC(C)(C)C)n2)CCC3)c1 [Compound 193, N-tert-butyl-2-{[2-(1-ethyl-1H-imidazol-4-yl)-5H,6H,7H-cyclopenta[d]pyrimidin-4-yl](methyl)amino}acetamide]
4 | 5.4 | CCn1cncc1-c1nc2c(c(N(C)CC(=O)NC(C)(C)C)n1)CCC2 [Compound 194, N-tert-butyl-2-{[2-(1-ethyl-1H-imidazol-5-yl)-5H,6H,7H-cyclopenta[d]pyrimidin-4-yl](methyl)amino}acetamide]
5 | 6.9 | CN(CC(=O)NC(C)(C)C)c1nc(-c2cn(CCO)cn2)nc2c1CCC2 [Compound 195, N-tert-butyl-2-({2-[1-(2-hydroxyethyl)-1H-imidazol-4-yl]-5H,6H,7H-cyclopenta[d]pyrimidin-4-yl}(methyl)amino)acetamide]
6 | 5.6 | CN(CC(=O)NC(C)(C)C)c1nc(-c2cncn2CCO)nc2c1CCC2 [Compound 196, N-tert-butyl-2-({2-[1-(2-hydroxyethyl)-1H-imidazol-5-yl]-5H,6H,7H-cyclopenta[d]pyrimidin-4-yl}(methyl)amino)acetamide]
7 | 7.4 | COc1ncc(NC(=O)CN(C)c2nc(-c3cc(OCCO)ccn3)nc3c2CCC3)cn1 [Compound 197, 2-({2-[4-(2-hydroxyethoxy)pyridin-2-yl]-5H,6H,7H-cyclopenta[d]pyrimidin-4-yl}(methyl)amino)-N-(2-methoxypyrimidin-5-yl)acetamide]
8 | 8.1 | CN(CC(=O)Nc1ccc(F)cc1)c1nc(-c2cc(OCCO)ccn2)nc2c1CCC2 [Compound 198, N-(4-fluorophenyl)-2-({2-[4-(2-hydroxyethoxy)pyridin-2-yl]-5H,6H,7H-cyclopenta[d]pyrimidin-4-yl}(methyl)amino)acetamide]
9 | 7.9 | Cc1ccc(NC(=O)CN(C)c2nc(-c3cc(OCCO)ccn3)nc3c2CCC3)cn1 [Compound 199, 2-({2-[4-(2-hydroxyethoxy)pyridin-2-yl]-5H,6H,7H-cyclopenta[d]pyrimidin-4-yl}(methyl)amino)-N-(6-methylpyridin-3-yl)acetamide]
10 | 7.6 | COc1ccnc(-c2nc3c(c(N(C)CC(=O)Nc4ccc(C)nc4)n2)CCC3)c1 [Compound 200, 2-{[2-(4-methoxypyridin-2-yl)-5H,6H,7H-cyclopenta[d]pyrimidin-4-yl](methyl)amino}-N-(6-methylpyridin-3-yl)acetamide]
11 | 7.4 | COc1ccc(NC(=O)CN(C)c2nc(-c3cn(C)cn3)nc3c2CCC3)cn1 [Compound 201, N-(6-methoxypyridin-3-yl)-2-{methyl[2-(1-methyl-1H-imidazol-4-yl)-5H,6H,7H-cyclopenta[d]pyrimidin-4-yl]amino}acetamide]
12 | 7.5 | CN(CC(=O)Nc1ccc(F)cc1)c1nc(-c2cn(C)cn2)nc2c1CCC2 [Compound 202, N-(4-fluorophenyl)-2-{methyl[2-(1-methyl-1H-imidazol-4-yl)-5H,6H,7H-cyclopenta[d]pyrimidin-4-yl]amino}acetamide]
13 | 6.3 | COc1ccc(N2CCN(c3nc(-c4ccccn4)nc4c3CCC4)CCC2=O)cc1 [Compound 203, 4-(4-methoxyphenyl)-1-[2-(pyridin-2-yl)-5H,6H,7H-cyclopenta[d]pyrimidin-4-yl]-1,4-diazepan-5-one]
14 | 6.9 | C[C@H](C(=O)NC1(C)CC1)N(C)c1nc(-c2ccccn2)nc2c1CCC2 [Compound 204, (2R)-2-{methyl[2-(pyridin-2-yl)-5H,6H,7H-cyclopenta[d]pyrimidin-4-yl]amino}-N-(1-methylcyclopropyl)propanamide]
15 | 7.5 | COc1ccnc(-c2nc3c(c(N(C)[C@H]4CCN(c5ccccc5)C4=O)n2)CCC3)c1 [Compound 205, (3S)-3-{[2-(4-methoxypyridin-2-yl)-5H,6H,7H-cyclopenta[d]pyrimidin-4-yl](methyl)amino}-1-phenylpyrrolidin-2-one]
16 | 6.9 | CN(c1nc(-c2ccccn2)nc2c1CCC2)[C@H]1CCN(c2ccc(F)cc2)C1=O [Compound 206, (3S)-1-(4-fluorophenyl)-3-{methyl[2-(pyridin-2-yl)-5H,6H,7H-cyclopenta[d]pyrimidin-4-yl]amino}pyrrolidin-2-one]
17 | 7.2 | CN(c1nc(-c2ccccn2)nc2c1CCC2)[C@H]1CCN(C2(C)CCCC2)C1=O [Compound 207, (3S)-3-{methyl[2-(pyridin-2-yl)-5H,6H,7H-cyclopenta[d]pyrimidin-4-yl]amino}-1-(1-methylcyclopentyl)pyrrolidin-2-one]
18 | 5.7 | CN(c1nc(-c2ccccn2)nc2c1CCC2)[C@H]1CCN(c2ccncc2)C1=O [Compound 208, (3S)-3-{methyl[2-(pyridin-2-yl)-5H,6H,7H-cyclopenta[d]pyrimidin-4-yl]amino}-1-(pyridin-4-yl)pyrrolidin-2-one]
19 | 8 | COc1ccc(NC(=O)CN(C)c2nc(-c3cc(OCCO)ccn3)nc3c2CCC3)nc1 [Compound 209, 2-({2-[4-(2-hydroxyethoxy)pyridin-2-yl]-5H,6H,7H-cyclopenta[d]pyrimidin-4-yl}(methyl)amino)-N-(5-methoxypyridin-2-yl)acetamide]
20 | 7.9 | COc1ccc(NC(=O)CN(C)c2nc(-c3cc(OCC(C)(C)O)ccn3)nc3c2CCC3)cn1 [Compound 210, 2-({2-[4-(2-hydroxy-2-methylpropoxy)pyridin-2-yl]-5H,6H,7H-cyclopenta[d]pyrimidin-4-yl}(methyl)amino)-N-(6-methoxypyridin-3-yl)acetamide]
21 | 7.9 | CN(CC(=O)NC(C)(C)C)c1nc(-c2cc(OCC3COC3)ccn2)nc2c1CCC2 [Compound 211, N-tert-butyl-2-[methyl(2-{4-[(oxetan-3-yl)methoxy]pyridin-2-yl}-5H,6H,7H-cyclopenta[d]pyrimidin-4-yl)amino]acetamide]
22 | 7.1 | CSCC[C@H](C(=O)NC(C)(C)C)N(C)c1nc(-c2cc(OC(F)F)ccn2)nc2c1CCC2 [Compound 212, (2R)—N-tert-butyl-2-({2-[4-(difluoromethoxy)pyridin-2-yl]-5H,6H,7H-cyclopenta[d]pyrimidin-4-yl}(methyl)amino)-4-(methylsulfanyl)butanamide]
23 | 6.4 | CN(CC(=O)Nc1cnn(C)c1)c1nc(-c2cc(OC(F)F)ccn2)nc2c1CCC2 [Compound 213, 2-({2-[4-(difluoromethoxy)pyridin-2-yl]-5H,6H,7H-cyclopenta[d]pyrimidin-4-yl}(methyl)amino)-N-(1-methyl-1H-pyrazol-4-yl)acetamide]
24 | 7.8 | COc1ccc(NC(=O)CN(C)c2nc(-c3cc(OCC(C)(C)O)ccn3)nc3c2CCC3)nc1 [Compound 214, 2-({2-[4-(2-hydroxy-2-methylpropoxy)pyridin-2-yl]-5H,6H,7H-cyclopenta[d]pyrimidin-4-yl}(methyl)amino)-N-(5-methoxypyridin-2-yl)acetamide]
